Test results published in patent US12139520B2 (priority 2020, dated 2024).
Bridge positions count the residues as written; N and C are the ends. Square brackets hold non-standard residues; d marks the D form. Peptide text beside a SMILES is read from it. Hyp = O=C(O)[C@@H]1C[C@@H](O)CN1; Cit = NC(=O)NCCC[C@H](N)C(=O)O

Tests used:
hAM1 receptor = hAM1 receptor (Homo sapiens, UniProt O60895+Q16602); experiment: cAMP assay for in vitro receptor activation, hAM1-R; assay type: cell-based; settings: cAMP assay, hAM1 receptor; read-out: hAM1R EC50
Summary of the method: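 cAMP accumulation was measured in a monoclonal cell line stably overexpressing the hAM1 receptor. Frozen aliquots were thawed and plated at 8000 cells/well in DPBS containing 0.05% casein and 0.5 mM IBMX.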

[1] = Physical stability of peptide analogues (Thioflavin T fibrillation); assay type: physicochemical; settings: maximum ThT signal normalized between hAMY maximum and buffer background; 40° C., shaking, four days; pH 7 per table title
Summary of the method: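 Samples are stressed at 40 °C for four days, being shaken at 700 rpm before each 10-min fluorescence reading of 4 μM Thioflavin T. Buffers were pH 4 acetate or pH 7 phosphate. Reported values are smoothed maximum ThT signals as a percentage of the hAMY-to-background range.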

hAMY3 receptor = target: T1, hAMY3 receptor (Homo sapiens, UniProt O60896+P30988); experiment: cAMP assay for in vitro receptor activation, hAMY3-R; assay type: cell-based; settings: cAMP assay, hAMY3 receptor; read-out: hAMY3R EC50
T1 sequence (P30988 25-474): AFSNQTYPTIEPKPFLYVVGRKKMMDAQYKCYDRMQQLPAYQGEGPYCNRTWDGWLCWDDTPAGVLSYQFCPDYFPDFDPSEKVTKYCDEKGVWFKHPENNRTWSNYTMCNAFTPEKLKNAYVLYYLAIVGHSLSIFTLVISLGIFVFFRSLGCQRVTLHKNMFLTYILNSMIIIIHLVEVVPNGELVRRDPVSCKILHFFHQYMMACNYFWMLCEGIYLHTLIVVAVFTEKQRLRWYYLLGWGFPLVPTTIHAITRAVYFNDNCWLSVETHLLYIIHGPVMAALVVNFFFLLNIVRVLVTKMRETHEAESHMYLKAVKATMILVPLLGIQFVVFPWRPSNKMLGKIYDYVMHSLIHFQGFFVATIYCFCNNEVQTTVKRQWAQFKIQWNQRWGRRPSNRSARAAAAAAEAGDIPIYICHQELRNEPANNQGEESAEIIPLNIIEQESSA
T1 sequence (O60896 24-148 partner): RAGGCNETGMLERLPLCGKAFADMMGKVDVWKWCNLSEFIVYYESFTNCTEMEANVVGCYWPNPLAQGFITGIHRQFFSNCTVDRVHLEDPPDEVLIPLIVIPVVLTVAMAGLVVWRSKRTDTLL
Summary of the method: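 Thawed cells from a sub-cloned monoclonal hAMY3-overexpressing line are plated in DPBS containing 0.05% casein and 0.5 mM IBMX. Test compounds are added immediately at graded doses for 30 min at room temperature. Reagents for cAMP detection are then added, and TR-FRET is recorded after one hour.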

Sequence of hAM1 receptor (Q16602 23-461): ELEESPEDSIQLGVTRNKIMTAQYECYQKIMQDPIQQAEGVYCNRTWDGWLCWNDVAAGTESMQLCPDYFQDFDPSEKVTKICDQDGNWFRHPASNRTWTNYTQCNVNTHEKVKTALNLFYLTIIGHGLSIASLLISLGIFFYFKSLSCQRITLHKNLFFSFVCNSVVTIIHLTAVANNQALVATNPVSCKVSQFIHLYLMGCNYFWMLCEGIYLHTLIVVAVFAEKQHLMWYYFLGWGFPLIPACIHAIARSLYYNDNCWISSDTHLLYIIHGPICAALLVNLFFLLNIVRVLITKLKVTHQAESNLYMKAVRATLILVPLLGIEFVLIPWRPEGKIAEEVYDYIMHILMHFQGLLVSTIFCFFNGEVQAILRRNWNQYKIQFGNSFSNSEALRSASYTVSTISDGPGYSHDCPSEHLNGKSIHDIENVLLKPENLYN
Sequence of hAM1 receptor (O60895 43-175 partner): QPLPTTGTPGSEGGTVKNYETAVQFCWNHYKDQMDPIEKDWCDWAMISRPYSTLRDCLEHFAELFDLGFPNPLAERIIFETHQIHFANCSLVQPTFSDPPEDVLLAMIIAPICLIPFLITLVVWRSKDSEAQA

Row | EC50 (hAM1 receptor) [nM] | Max ThT signal (%) [1] [%] | EC50 (hAMY3 receptor) [nM] | SMILES
1 | > 5000 | 22.650 | 0.034 | CC[C@H](C)[C@H](NC(=O)[C@H](CCC(N)=O)NC(=O)[C@H](Cc1c[nH]cn1)NC(=O)[C@H](C)NC(=O)[C@H](CC(C)C)NC(=O)[C@H](CCCNC(N)=O)NC(=O)[C@H](CCC(N)=O)NC(=O)[C@@H](NC(=O)[C@@H](NC(=O)[C@@H]1CSSC[C@H](NC(=O)CN)C(=O)N[C@@H](CCCNC(=N)N)C(=O)N[C@@H]([C@@H](C)O)C(=O)NCC(=O)N[C@@H]([C@@H](C)O)C(=O)N1)[C@@H](C)O)C(C)C)C(=O)N[C@@H](Cc1ccc(O)cc1)C(=O)N[C@@H](CCC(N)=O)C(=O)N[C@@H](Cc1ccccc1)C(=O)N[C@H](C(=O)N[C@@H](CC(=O)O)C(=O)N[C@@H](CCCCN)C(=O)N[C@@H](CC(=O)O)C(=O)N[C@@H](CCCCN)C(=O)N[C@@H](CC(=O)O)C(=O)N[C@@H](CC(N)=O)C(=O)N[C@H](C(=O)N[C@@H](C)C(=O)N1CCC[C@H]1C(=O)N[C@@H](CCCNC(=N)N)C(=O)N[C@@H](CO)C(=O)N[C@@H](CC(N)=O)C(=O)N[C@H](C(=O)NCC(=O)N1CCC[C@H]1C(=O)N[C@@H](CCC(N)=O)C(=O)NCC(=O)N1C[C@H](O)C[C@H]1C(N)=O)C(C)C)C(C)C)[C@@H](C)O [compound 281] (H-GCRTGTCTVQ[Cit]LAHQIYQFTDKDKDNVAPRSNVGPQG[Hyp]-NH2; disulfide 2-7; N-terminus assumed)
2 | > 5000 | 11.200 | 0.01 | CC[C@H](C)[C@H](NC(=O)[C@H](CCC(N)=O)NC(=O)[C@H](CC(=O)O)NC(=O)[C@H](C)NC(=O)[C@H](CC(C)C)NC(=O)[C@H](Cc1c[nH]c2ccccc12)NC(=O)[C@H](CC(N)=O)NC(=O)[C@@H](NC(=O)[C@@H](NC(=O)[C@@H]1CSSC[C@H](NC(=O)[C@@H](N)CCCNC(=N)N)C(=O)N[C@@H](CC(N)=O)C(=O)N[C@@H](C)C(=O)N[C@@H](CO)C(=O)N[C@@H]([C@@H](C)O)C(=O)N1)[C@@H](C)O)C(C)C)C(=O)N[C@H](C(=O)N[C@@H](CCC(N)=O)C(=O)N[C@@H](Cc1ccccc1)C(=O)N[C@@H](CO)C(=O)N[C@@H](CC(N)=O)C(=O)N[C@@H](CCCCN)C(=O)N[C@@H](CC(=O)O)C(=O)N[C@@H](CCCCN)C(=O)N[C@@H](C)C(=O)N[C@@H](CCC(N)=O)C(=O)N[C@H](C(=O)N[C@@H](CO)C(=O)N1CCC[C@H]1C(=O)N1CCC[C@H]1C(=O)N[C@H](C(=O)N[C@@H](CCC(=O)O)C(=O)N[C@H](C(=O)NCC(=O)N1CCC[C@H]1C(=O)N[C@@H](CC(N)=O)C(=O)N[C@@H](CO)C(=O)N1C[C@H](O)C[C@H]1C(N)=O)C(C)C)[C@@H](C)O)C(C)C)[C@@H](C)O [compound 307] (H-RCNASTCTVNWLADQITQFSNKDKAQVSPPTEVGPNS[Hyp]-NH2; disulfide 2-7; N-terminus assumed)
3 | > 5000 | 15.050 | 0.004 | CC[C@H](C)[C@H](NC(=O)[C@H](CCC(N)=O)NC(=O)[C@H](Cc1c[nH]cn1)NC(=O)[C@H](C)NC(=O)[C@H](CC(C)C)NC(=O)[C@H](Cc1c[nH]c2ccccc12)NC(=O)[C@H](CCC(N)=O)NC(=O)[C@@H](NC(=O)[C@@H](NC(=O)[C@@H]1CSSC[C@H](NC(=O)[C@@H](N)CCCCN)C(=O)N[C@@H](CC(N)=O)C(=O)N[C@@H]([C@@H](C)O)C(=O)N[C@@H](C)C(=O)N[C@@H]([C@@H](C)O)C(=O)N1)[C@@H](C)O)C(C)C)C(=O)N[C@@H](Cc1ccc(O)cc1)C(=O)N[C@@H](CCC(N)=O)C(=O)N[C@@H](Cc1ccccc1)C(=O)N[C@@H](C)C(=O)N[C@@H](CC(=O)O)C(=O)N[C@@H](CCCCN)C(=O)N[C@@H](CC(=O)O)C(=O)N[C@@H](CCCCN)C(=O)N[C@@H](CC(=O)O)C(=O)N[C@@H](CC(N)=O)C(=O)N[C@H](C(=O)N[C@@H](C)C(=O)N1CCC[C@H]1C(=O)N1CCC[C@H]1C(=O)N[C@H](C(=O)N[C@@H](CC(N)=O)C(=O)N[C@H](C(=O)NCC(=O)N[C@@H](CO)C(=O)N[C@@H](CC(N)=O)C(=O)NCC(=O)N1C[C@H](O)C[C@H]1C(N)=O)C(C)C)[C@@H](C)O)C(C)C [compound 313] (H-KCNTATCTVQWLAHQIYQFADKDKDNVAPPTNVGSNG[Hyp]-NH2; disulfide 2-7; N-terminus assumed)
4 | > 5000 | 2.200 | 0.022 | CC[C@H](C)[C@H](NC(=O)[C@H](CCC(N)=O)NC(=O)[C@H](Cc1c[nH]cn1)NC(=O)[C@H](C)NC(=O)[C@H](CC(C)C)NC(=O)[C@H](CCCNC(=N)N)NC(=O)[C@H](CCC(N)=O)NC(=O)[C@@H](NC(=O)[C@@H](NC(=O)[C@@H]1CSSC[C@H](NC(=O)[C@@H](N)CCCCN)C(=O)N[C@@H](CC(N)=O)C(=O)N[C@@H]([C@@H](C)O)C(=O)N[C@@H](C)C(=O)N[C@@H]([C@@H](C)O)C(=O)N1)[C@@H](C)O)C(C)C)C(=O)N[C@@H](Cc1ccc(O)cc1)C(=O)N[C@@H](CCC(N)=O)C(=O)N[C@@H](C)C(=O)N[C@H](C(=O)N[C@@H](CC(=O)O)C(=O)N[C@@H](CCCCN)C(=O)N[C@@H](CC(=O)O)C(=O)N[C@@H](CCCCN)C(=O)N[C@@H](CC(=O)O)C(=O)N[C@@H](CC(N)=O)C(=O)N[C@H](C(=O)N[C@@H](C)C(=O)N1CCC[C@H]1C(=O)N1CCC[C@H]1C(=O)N[C@H](C(=O)N[C@@H](CC(N)=O)C(=O)N[C@H](C(=O)NCC(=O)N[C@@H](CO)C(=O)N[C@@H](CC(N)=O)C(=O)NCC(=O)N1C[C@H](O)C[C@H]1C(N)=O)C(C)C)[C@@H](C)O)C(C)C)[C@@H](C)O [compound 114] (H-KCNTATCTVQRLAHQIYQATDKDKDNVAPPTNVGSNG[Hyp]-NH2; disulfide 2-7; N-terminus assumed)
5 | > 5000 | 0.200 | 0.236 | CC[C@H](C)[C@H](NC(=O)[C@H](CCC(N)=O)NC(=O)[C@H](Cc1c[nH]cn1)NC(=O)[C@H](C)NC(=O)[C@H](CC(C)C)NC(=O)[C@H](CCCNC(=N)N)NC(=O)[C@H](CCC(N)=O)NC(=O)[C@@H](NC(=O)[C@@H](NC(=O)[C@@H]1CSSC[C@H](NC(=O)CN)C(=O)N[C@@H](CCCNC(=N)N)C(=O)N[C@@H]([C@@H](C)O)C(=O)NCC(=O)N[C@@H]([C@@H](C)O)C(=O)N1)[C@@H](C)O)C(C)C)C(=O)N[C@@H](Cc1ccc(O)cc1)C(=O)N[C@@H](CCC(N)=O)C(=O)N[C@@H](Cc1ccccc1)C(=O)N[C@H](C(=O)N[C@@H](CC(=O)O)C(=O)N[C@@H](CCCCN)C(=O)N[C@@H](Cc1ccccc1)C(=O)N[C@@H](CCCCN)C(=O)N[C@@H](CC(=O)O)C(=O)N[C@@H](CC(N)=O)C(=O)N[C@H](C(=O)N[C@@H](C)C(=O)N1CCC[C@H]1C(=O)N[C@@H](CCCNC(=N)N)C(=O)N[C@@H](CO)C(=O)N[C@@H](CCCCN)C(=O)N[C@H](C(=O)N[C@@H](CO)C(=O)N1CCC[C@H]1C(=O)N[C@@H](CCC(N)=O)C(=O)N[C@H](C(=O)N[C@@H](Cc1ccccc1)C(N)=O)[C@@H](C)O)[C@@H](C)CC)C(C)C)[C@@H](C)O [compound 239] (H-GCRTGTCTVQRLAHQIYQFTDKFKDNVAPRSKISPQTF-NH2; disulfide 2-7; N-terminus assumed)
6 | > 5000 | 2.350 | 0.053 | CC(C)C[C@H](NC(=O)[C@H](Cc1c[nH]c2ccccc12)NC(=O)[C@H](CCC(N)=O)NC(=O)[C@@H](NC(=O)[C@@H](NC(=O)[C@@H]1CSSC[C@H](NC(=O)CN)C(=O)N[C@@H](CCCNC(=N)N)C(=O)N[C@@H](Cc2ccccc2)C(=O)NCC(=O)N[C@@H]([C@@H](C)O)C(=O)N1)[C@@H](C)O)C(C)C)C(=O)N[C@@H](C)C(=O)N[C@@H](Cc1c[nH]cn1)C(=O)N[C@@H](Cc1ccccc1)C(=O)N[C@@H](CC(C)C)C(=O)N[C@@H](Cc1ccc(O)cc1)C(=O)N[C@@H](CCC(N)=O)C(=O)N[C@@H](Cc1ccccc1)C(=O)N[C@H](C(=O)N[C@@H](CC(=O)O)C(=O)N[C@@H](CCCCN)C(=O)N[C@@H](CC(=O)O)C(=O)N[C@@H](CCCCN)C(=O)N[C@@H](CC(=O)O)C(=O)N[C@@H](CC(N)=O)C(=O)N[C@H](C(=O)N[C@@H](C)C(=O)N1CCC[C@H]1C(=O)N[C@@H](CCCNC(=N)N)C(=O)N[C@H](C(=O)N[C@@H](CC(N)=O)C(=O)N[C@H](C(=O)NCC(=O)N1CCC[C@H]1C(=O)N[C@@H](CCC(N)=O)C(=O)NCC(=O)N[C@@H](Cc1ccc(O)cc1)C(N)=O)C(C)C)[C@@H](C)O)C(C)C)[C@@H](C)O [compound 326] (H-GCRFGTCTVQWLAHFLYQFTDKDKDNVAPRTNVGPQGY-NH2; disulfide 2-7; N-terminus assumed)
